# Measurements: ChEMBL document CHEMBL5370618, “Hypoxia-Directed and Self-Immolative Theranostic Agent: Imaging and Treatment of Cancer and Bacterial Infections” (J Med Chem, 2023)
# Calls of active or inactive are those of the source. The rule behind the calls is not given here.
# Columns and labels:
# [1] = system: Escherichia coli; assay: Antibacterial activity against Escherichia coli assessed as reduction in bacterial cell viability at 250 to 500 uM incubated for 24 hrs by CFU assay; type: functional, organism-based; conditions: dose 250-500 µM
# [2] = Prodrug conversion in PBS at pH 7.4 assessed as Escherichia coli nitroreductase mediated drug degradation by measuring increase in maximum absorption at 522nm at 5 uM in presence of NADH as cofactor by UV-Vis spectroscopic analysis; type: ADME; conditions: isolated protein, pH 7.4, 5 µM
# [3] = Prodrug conversion in Escherichia coli assessed as nitroreductase mediated drug degradation by measuring increase in fluorescence intensity at 10 uM by fluorescence analysis relative to control; type: ADME
# [4] = Prodrug conversion in Bacillus subtilis assessed as nitroreductase mediated drug degradation by measuring increase in fluorescence intensity at 10 uM by fluorescence analysis; type: ADME
# [5] = system: Bacillus subtilis; assay: Antibacterial activity against Bacillus subtilis assessed as reduction in bacterial cell viability at 250 to 500 uM incubated for 24 hrs by CFU assay; type: functional, organism-based; conditions: dose 250-500 µM
# [6] = Prodrug conversion in BALB/c mouse xenografted with human hypoxic A549 cells assessed as rhodamine release by measuring increase in fluorescence intensity in tumor at 2.5 mg/kg,iv and measured after 29 hrs by fluorescence imaging analysis; type: ADME, organism-based; conditions: in vivo
# [7] = Biodistribution in tumor of BALB/c mouse xenografted with human hypoxic A549 cells assessed as drug uptake at 2.5 mg/kg,iv and measured after 29 hrs by fluorescence imaging analysis; type: ADME, organism-based, Neoplasm; conditions: in vivo
# [8] = Prodrug conversion in PBS at 7.4 assessed as Escherichia coli nitroreductase mediated drug degradation by measuring increase in fluorescence emission at 545nm at 10 uM in presence of NADH as cofactor by fluorescence spectroscopic analysis; type: ADME; conditions: isolated protein, pH 7.4, 10 µM
# [9] = Prodrug conversion in PBS at 7.4 assessed as Escherichia coli nitroreductase mediated drug degradation by measuring norfloxacin metabolite formation at 10 uM incubated for 30 mins by HRMS analysis; type: ADME; conditions: isolated protein, pH 7.4, 0.5 h
# [10] = Prodrug conversion in PBS at 7.4 assessed as Escherichia coli nitroreductase mediated drug degradation by measuring rhodamine metabolite formation at 10 uM incubated for 30 mins by HRMS analysis; type: ADME; conditions: isolated protein, pH 7.4, 0.5 h
# [11] = Prodrug conversion in human serum assessed as Fe2+ ion mediated drug degradation by measuring fluorescence production at 10 uM incubated for 30 mins by fluorescence spectroscopic analysis; type: ADME, cell-free; conditions: 0.5 h
# [12] = Prodrug conversion in human serum assessed as Fe3+ ion mediated drug degradation by measuring fluorescence production at 10 uM incubated for 30 mins by fluorescence spectroscopic analysis; type: ADME, cell-free; conditions: 0.5 h
# [13] = Prodrug conversion in human serum assessed as Zn2+ ion mediated drug degradation by measuring fluorescence production at 10 uM incubated for 30 mins by fluorescence spectroscopic analysis; type: ADME, cell-free; conditions: 0.5 h
# [14] = Prodrug conversion in human serum assessed as Cu2+ ion mediated drug degradation by measuring fluorescence production at 10 uM incubated for 30 mins by fluorescence spectroscopic analysis; type: ADME, cell-free; conditions: 0.5 h
# [15] = Prodrug conversion in human serum assessed as […] mediated drug degradation by measuring fluorescence production at 10 uM incubated for 30 mins by fluorescence spectroscopic analysis; type: ADME, cell-free; conditions: 0.5 h
# [16] = Prodrug conversion in human serum assessed as NO3- ion mediated drug degradation by measuring fluorescence production at 10 uM incubated for 30 mins by fluorescence spectroscopic analysis; type: ADME, cell-free; conditions: 0.5 h
# [17] = Prodrug conversion in human serum assessed as ascorbic acid mediated drug degradation by measuring fluorescence production at 10 uM incubated for 30 mins by fluorescence spectroscopic analysis; type: ADME, cell-free; conditions: 0.5 h
# [18] = Prodrug conversion in human serum assessed as FADH2 mediated drug degradation by measuring fluorescence production at 10 uM incubated for 30 mins by fluorescence spectroscopic analysis; type: ADME, cell-free; conditions: 0.5 h
# [19] = Prodrug conversion in human serum assessed as GSH mediated drug degradation by measuring fluorescence production at 10 uM incubated for 30 mins by fluorescence spectroscopic analysis; type: ADME, cell-free; conditions: 0.5 h
# [20] = Prodrug conversion in human serum assessed as H2O2 mediated drug degradation by measuring fluorescence production at 10 uM incubated for 30 mins by fluorescence spectroscopic analysis; type: ADME, cell-free; conditions: 0.5 h
# [21] = Prodrug conversion in human serum assessed as NO mediated drug degradation by measuring fluorescence production at 10 uM incubated for 30 mins by fluorescence spectroscopic analysis; type: ADME, cell-free; conditions: 0.5 h
# [22] = Prodrug conversion in human serum assessed as HNO mediated drug degradation by measuring fluorescence production at 10 uM incubated for 30 mins by fluorescence spectroscopic analysis; type: ADME, cell-free; conditions: 0.5 h
# [23] = Prodrug conversion in human serum assessed as hydroxyl radical mediated drug degradation by measuring fluorescence production at 10 uM incubated for 30 mins by fluorescence spectroscopic analysis; type: ADME, cell-free; conditions: 0.5 h
# [24] = Prodrug conversion in human serum assessed as pepsin mediated drug degradation by measuring fluorescence production at 10 uM incubated for 30 mins by fluorescence spectroscopic analysis; type: ADME, cell-free; conditions: 0.5 h
# [25] = Prodrug conversion in human serum assessed as trypsin mediated drug degradation by measuring fluorescence production at 10 uM incubated for 30 mins by fluorescence spectroscopic analysis; type: ADME, cell-free; conditions: 0.5 h
# [26] = Prodrug conversion in human serum assessed as tyrosinase mediated drug degradation by measuring fluorescence production at 10 uM incubated for 30 mins by fluorescence spectroscopic analysis; type: ADME, cell-free; conditions: 0.5 h
# [27] = Prodrug conversion in human serum assessed as glutamic acid mediated drug degradation by measuring fluorescence production at 10 uM incubated for 30 mins by fluorescence spectroscopic analysis; type: ADME, cell-free; conditions: 0.5 h
# [28] = Prodrug conversion in human serum assessed as arginine mediated drug degradation by measuring fluorescence production at 10 uM incubated for 30 mins by fluorescence spectroscopic analysis; type: ADME, cell-free; conditions: 0.5 h
# [29] = Prodrug conversion in human serum assessed as serine mediated drug degradation by measuring fluorescence production at 10 uM incubated for 30 mins by fluorescence spectroscopic analysis; type: ADME, cell-free; conditions: 0.5 h
# [30] = Prodrug conversion in human serum assessed as glutathione mediated drug degradation by measuring fluorescence production at 10 uM incubated for 30 mins by fluorescence spectroscopic analysis; type: ADME, cell-free; conditions: 0.5 h
# [31] = Prodrug conversion in human serum assessed as cysteine mediated drug degradation by measuring fluorescence production at 10 uM incubated for 30 mins by fluorescence spectroscopic analysis; type: ADME, cell-free; conditions: 0.5 h
# [32] = Prodrug conversion in pH 4 to 8 buffer assessed as Escherichia coli nitroreductase mediated drug degradation by measuring fluorescence intensity at 10 uM incubated for 30 mins by fluorescence spectroscopic analysis; type: ADME; conditions: isolated protein, pH 4, 0.5 h
# [33] = Prodrug conversion in PBS at pH 7.4 assessed as Escherichia coli nitroreductase mediated drug degradation by measuring change in fluorescence intensity at 545nm at 10 uM incubated for 20 mins by fluorescence spectroscopic analysis; type: ADME; conditions: isolated protein, pH 7.4, 20 min
# [34] = Prodrug conversion in Escherichia coli assessed as nitroreductase mediated drug degradation by measuring fold increase in fluorescence intensity at 10 uM by fluorescence analysis relative to control; type: ADME
# [35] = Prodrug conversion in Escherichia coli assessed as nitroreductase mediated drug degradation by measuring increase in fluorescence intensity at 10 uM in presence of dicoumarol by fluorescence analysis; type: ADME
# [36] = Prodrug conversion in Bacillus subtilis assessed as nitroreductase mediated drug degradation by measuring increase in fluorescence intensity at 10 uM in presence of dicoumarol by fluorescence analysis; type: ADME
# [37] = Prodrug conversion in BALB/c mouse xenografted with human hypoxic A549 cells assessed as rhodamine release by measuring increase in fluorescence intensity in tumor at 2.5 mg/kg,iv and measured after 2.5 hrs by fluorescence imaging analysis; type: ADME, organism-based; conditions: in vivo
# [38] = Prodrug conversion in BALB/c mouse xenografted with human hypoxic A549 cells assessed as rhodamine release by measuring increase in fluorescence intensity in body at 2.5 mg/kg,iv and measured upto 29 hrs by fluorescence imaging analysis; type: ADME, organism-based; conditions: in vivo
# [39] = Prodrug conversion in BALB/c mouse xenografted with human hypoxic A549 cells assessed as rhodamine release by measuring fold increase in fluorescence intensity in tumor at 2.5 mg/kg,iv and measured after 17 hrs by fluorescence imaging analysis relative to control; type: ADME, organism-based; conditions: in vivo
# [40] = Biodistribution in intestine of BALB/c mouse xenografted with human hypoxic A549 cells assessed as drug uptake at 2.5 mg/kg,iv and measured after 29 hrs by fluorescence imaging analysis; type: ADME, organism-based; conditions: in vivo
# [41] = Biodistribution in stomach of BALB/c mouse xenografted with human hypoxic A549 cells assessed as drug uptake at 2.5 mg/kg,iv and measured after 29 hrs by fluorescence imaging analysis; type: ADME, organism-based; conditions: in vivo
# [42] = Biodistribution in heart of BALB/c mouse xenografted with human hypoxic A549 cells assessed as drug uptake at 2.5 mg/kg,iv and measured after 29 hrs by fluorescence imaging analysis; type: ADME, organism-based; conditions: in vivo
# [43] = Biodistribution in spleen of BALB/c mouse xenografted with human hypoxic A549 cells assessed as drug uptake at 2.5 mg/kg,iv and measured after 29 hrs by fluorescence imaging analysis; type: ADME, organism-based; conditions: in vivo
# [44] = Biodistribution in liver of BALB/c mouse xenografted with human hypoxic A549 cells assessed as drug uptake at 2.5 mg/kg,iv and measured after 29 hrs by fluorescence imaging analysis; type: ADME, organism-based; conditions: in vivo
# [45] = Biodistribution in kidney of BALB/c mouse xenografted with human hypoxic A549 cells assessed as drug uptake at 2.5 mg/kg,iv and measured after 29 hrs by fluorescence imaging analysis; type: ADME, organism-based; conditions: in vivo
# [46] = Biodistribution in tumor of BALB/c mouse xenografted with human hypoxic A549 cells assessed as fold increase in drug uptake at 2.5 mg/kg,iv and measured after 29 hrs by fluorescence imaging analysis relative to control; type: ADME, organism-based, Neoplasm; conditions: in vivo
# [47] = Prodrug conversion in tumor of BALB/c mouse xenografted with human hypoxic A549 cells assessed as fold increase in fluorescence intensity at 2.5 mg/kg,iv and measured after 29 hrs by fluorescence imaging analysis relative to control; type: ADME, organism-based, Neoplasm; conditions: in vivo
compound,measurement,setting,value
CCn1cc(C(=O)O)c(=O)c2cc(F)c(N3CCNCC3)cc21,Activity,[1],Active
CCN(CC)c1ccc2c(c1)Oc1cc(OC(=O)OCc3cc(C)cc(COC(=O)c4cn(CC)c5cc(N6CCNCC6)c(F)cc5c4=O)c3OCc3ccccc3)ccc1C21OC(=O)c2ccccc21 (centres undefined),Drug metabolism,[2],Metabolite_Notdetected
same,Drug metabolism,[3],Metabolite_Notdetected
same,Drug metabolism,[4],Metabolite_Notdetected
same,Activity,[1],Active
same,Activity,[5],Dose-Dependent Effect
same,Drug metabolism,[6],Metabolite_Notdetected
same,Drug uptake,[7],Not Active
CCN(CC)c1ccc2c(c1)Oc1cc(OC(=O)OCc3cc(C)cc(COC(=O)c4cn(CC)c5cc(N6CCNCC6)c(F)cc5c4=O)c3OCc3ccc([N+](=O)[O-])cc3)ccc1C21OC(=O)c2ccccc21 (centres undefined),Drug metabolism,[2],Metabolite_Detected
same,Drug metabolism,[8],Metabolite_Detected
same,Drug metabolism,[9],Metabolite_Detected
same,Drug metabolism,[10],Metabolite_Detected
same,Drug metabolism,[11],Metabolite_Notdetected
same,Drug metabolism,[12],Metabolite_Notdetected
same,Drug metabolism,[13],Metabolite_Notdetected
same,Drug metabolism,[14],Metabolite_Notdetected
same,Drug metabolism,[15],Metabolite_Notdetected
same,Drug metabolism,[16],Metabolite_Notdetected
same,Drug metabolism,[17],Metabolite_Notdetected
same,Drug metabolism,[18],Metabolite_Notdetected
same,Drug metabolism,[19],Metabolite_Notdetected
same,Drug metabolism,[20],Metabolite_Notdetected
same,Drug metabolism,[21],Metabolite_Notdetected
same,Drug metabolism,[22],Metabolite_Notdetected
same,Drug metabolism,[23],Metabolite_Notdetected
same,Drug metabolism,[24],Metabolite_Notdetected
same,Drug metabolism,[25],Metabolite_Notdetected
same,Drug metabolism,[26],Metabolite_Notdetected
same,Drug metabolism,[27],Metabolite_Notdetected
same,Drug metabolism,[28],Metabolite_Notdetected
same,Drug metabolism,[29],Metabolite_Notdetected
same,Drug metabolism,[30],Metabolite_Notdetected
same,Drug metabolism,[31],Metabolite_Notdetected
same,Drug metabolism,[32],Metabolite_Detected
same,Drug metabolism,[33],Metabolite_Detected
same,fold change (FC),[34],3.5
same,Drug metabolism,[35],Metabolite_Notdetected
same,Drug metabolism,[4],Metabolite_Detected
same,Drug metabolism,[36],Metabolite_Notdetected
same,Activity,[1],Active
same,Activity,[5],Dose-Dependent Effect
same,Drug metabolism,[37],Metabolite_Detected
same,Drug metabolism,[6],Metabolite_Detected
same,Drug metabolism,[38],Metabolite_Detected
same,fold change (FC),[39],4.1
same,Drug uptake,[7],Active
same,Drug uptake,[40],Active
same,Drug uptake,[41],Active
same,Drug uptake,[42],Not Active
same,Drug uptake,[43],Not Active
same,Drug uptake,[44],Not Active
same,Drug uptake,[45],Not Active
same,fold change (FC),[46],4
same,fold change (FC),[47],4.5
